Data from PubChem BioAssay AID1259407 (Chemical Carcinogenesis Research Information System (CCRIS), 2018).
Calls of active or inactive are those of the source. The rule behind the calls is not given here.

Tested on: CCRIS mutagenicity, Ames/micronucleus/aberration tests
Test: CCRIS mutagenicity studies

Question: C[C@@H]1Cc2c(Cl)cc(C(=O)NC(Cc3ccccc3)C(=O)O)c(O)c2C(=O)O1 (stereo partly specified) was tested. Which mutagenic call (End Point: IN VITRO CHROMOSOMAL ABERRATIONS, Test System: BOVINE LYMPHOCYTES, Metabolic Activation: NONE) did it give?
Answer: active; positive (structural changes)

Question: What about the mutagenic call (End Point: IN VIVO CHROMOSOMAL ABERRATIONS, Test System: SPLENOCYTES, Species: RAT, Strain/Sex: FISCHER 344/MALE, Route: ORAL (GAVAGE)) of the same compound?
Answer: inactive; negative

Question: And the mutagenic call (End Point: In vivo chromosomal aberrations, Test System: Bone marrow cells, Species: Mouse, Strain/Sex: Balb/C / Male, Route: Intraperitoneal)?
Answer: active; positive (structural changes)

Question: What about the mutagenic call (End Point: In vivo micronucleus, Test System: Bone marrow polychromatic erythrocytes, Species: Rat, Strain/Sex: Sprague-Dawley/Male, Route: Oral) of the same compound?
Answer: active; positive. addition of inula crithmoides extract inhibited the response

Question: And the mutagenic call (Test System: AMES SALMONELLA TYPHIMURIUM, Strain/Indicator: TA97, Metabolic Activation: HAMSTER, LIVER, S-9, AROCLOR 1254 (10 OR 30%), Method: PREINCUBATION)?
Answer: inactive; negative

Question: What about the mutagenic call (Test System: AMES SALMONELLA TYPHIMURIUM, Strain/Indicator: TA97, Metabolic Activation: HAMSTER, LIVER, S-9, AROCLOR 1254, Method: PREINCUBATION) of the same compound?
Answer: inactive; negative

Question: And the mutagenic call (Test System: AMES SALMONELLA TYPHIMURIUM, Strain/Indicator: TA97, Metabolic Activation: NONE, Method: PREINCUBATION)?
Answer: inactive; negative

Question: And the mutagenic call (Test System: AMES SALMONELLA TYPHIMURIUM, Strain/Indicator: TA97, Metabolic Activation: RAT, LIVER, S-9, AROCLOR 1254 (10 OR 30%), Method: PREINCUBATION)?
Answer: inactive; negative

Question: What about the mutagenic call (Test System: AMES SALMONELLA TYPHIMURIUM, Strain/Indicator: TA97, Metabolic Activation: RAT, LIVER, S-9, AROCLOR 1254, Method: PREINCUBATION) of the same compound?
Answer: inactive; negative

Question: And the mutagenic call (Test System: AMES SALMONELLA TYPHIMURIUM, Strain/Indicator: TA97A, Metabolic Activation: NONE, Method: PREINCUBATION)?
Answer: inactive; negative

Question: And the mutagenic call (Test System: AMES SALMONELLA TYPHIMURIUM, Strain/Indicator: TA97A, Metabolic Activation: RAT LIVER S-9, Method: PREINCUBATION)?
Answer: inactive; negative

Question: What about the mutagenic call (Test System: AMES SALMONELLA TYPHIMURIUM, Strain/Indicator: TA98, Metabolic Activation: HAMSTER, LIVER, S-9, AROCLOR 1254 (10 OR 30%), Method: PREINCUBATION) of the same compound?
Answer: inactive; negative

Question: And the mutagenic call (Test System: AMES SALMONELLA TYPHIMURIUM, Strain/Indicator: TA98, Metabolic Activation: HAMSTER, LIVER, S-9, AROCLOR 1254, Method: PREINCUBATION)?
Answer: inactive; negative

Question: What about the mutagenic call (Test System: AMES SALMONELLA TYPHIMURIUM, Strain/Indicator: TA98, Metabolic Activation: HUMAN HEPG2 CELL S-9, Method: PREINCUBATION) of the same compound?
Answer: inactive; negative

Question: What about the mutagenic call (Test System: AMES SALMONELLA TYPHIMURIUM, Strain/Indicator: TA98, Metabolic Activation: MOUSE KIDNEY S-9, NADP OR ARACHIDONIC ACID (10%), Method: MICROMETHOD) of the same compound?
Answer: active; positive

Question: What about the mutagenic call (Test System: AMES SALMONELLA TYPHIMURIUM, Strain/Indicator: TA98, Metabolic Activation: MOUSE LIVER S-9 (10%), Method: MICROMETHOD) of the same compound?
Answer: inactive; negative

Question: What about the mutagenic call (Test System: AMES SALMONELLA TYPHIMURIUM, Strain/Indicator: TA98, Metabolic Activation: NONE, Method: PREINCUBATION) of the same compound?
Answer: inactive; negative

Question: What about the mutagenic call (Test System: AMES SALMONELLA TYPHIMURIUM, Strain/Indicator: TA98, Metabolic Activation: NONE, Method: STANDARD PLATE) of the same compound?
Answer: inactive; negative

Question: And the mutagenic call (Test System: AMES SALMONELLA TYPHIMURIUM, Strain/Indicator: TA98, Metabolic Activation: RAT LIVER S-9, AROCLOR 1254 (10%), Method: MICROMETHOD)?
Answer: inactive; negative

Question: What about the mutagenic call (Test System: AMES SALMONELLA TYPHIMURIUM, Strain/Indicator: TA98, Metabolic Activation: RAT LIVER S-9, Method: PREINCUBATION) of the same compound?
Answer: inactive; negative

Question: What about the mutagenic call (Test System: AMES SALMONELLA TYPHIMURIUM, Strain/Indicator: TA98, Metabolic Activation: RAT, LIVER, S-9, AROCLOR 1254 (10 OR 30%), Method: PREINCUBATION) of the same compound?
Answer: inactive; negative

Question: And the mutagenic call (Test System: AMES SALMONELLA TYPHIMURIUM, Strain/Indicator: TA98, Metabolic Activation: RAT, LIVER, S-9, AROCLOR 1254, Method: PREINCUBATION)?
Answer: inactive; negative

Question: What about the mutagenic call (Test System: AMES SALMONELLA TYPHIMURIUM, Strain/Indicator: TA98, Metabolic Activation: RAT, LIVER, S-9, AROCLOR 1254, Method: STANDARD PLATE) of the same compound?
Answer: inactive; negative

Question: What about the mutagenic call (Test System: AMES SALMONELLA TYPHIMURIUM, Strain/Indicator: TA100, Metabolic Activation: HAMSTER, LIVER, S-9, AROCLOR 1254 (10 OR 30%), Method: PREINCUBATION) of the same compound?
Answer: inactive; negative

Question: What about the mutagenic call (Test System: AMES SALMONELLA TYPHIMURIUM, Strain/Indicator: TA100, Metabolic Activation: HAMSTER, LIVER, S-9, AROCLOR 1254, Method: PREINCUBATION) of the same compound?
Answer: inactive; negative

Question: What about the mutagenic call (Test System: AMES SALMONELLA TYPHIMURIUM, Strain/Indicator: TA100, Metabolic Activation: HUMAN HEPG2 CELL S-9, Method: PREINCUBATION) of the same compound?
Answer: inactive; negative

Question: What about the mutagenic call (Test System: AMES SALMONELLA TYPHIMURIUM, Strain/Indicator: TA100, Metabolic Activation: NONE, Method: STANDARD PLATE) of the same compound?
Answer: inactive; negative

Question: What about the mutagenic call (Test System: AMES SALMONELLA TYPHIMURIUM, Strain/Indicator: TA100, Metabolic Activation: RAT LIVER S-9, Method: PREINCUBATION) of the same compound?
Answer: inactive; negative

Question: And the mutagenic call (Test System: AMES SALMONELLA TYPHIMURIUM, Strain/Indicator: TA100, Metabolic Activation: RAT, LIVER, MICROSOMES, PHENOBARBITAL, Method: STANDARD PLATE)?
Answer: active; positive

Question: What about the mutagenic call (Test System: AMES SALMONELLA TYPHIMURIUM, Strain/Indicator: TA100, Metabolic Activation: RAT, LIVER, S-9, AROCLOR 1254 (10 OR 30%), Method: PREINCUBATION) of the same compound?
Answer: inactive; negative

Question: What about the mutagenic call (Test System: AMES SALMONELLA TYPHIMURIUM, Strain/Indicator: TA100, Metabolic Activation: RAT, LIVER, S-9, AROCLOR 1254, Method: PREINCUBATION) of the same compound?
Answer: inactive; negative

Question: What about the mutagenic call (Test System: AMES SALMONELLA TYPHIMURIUM, Strain/Indicator: TA100, Metabolic Activation: RAT, LIVER, S-9, AROCLOR 1254, Method: STANDARD PLATE) of the same compound?
Answer: inactive; negative

Question: What about the mutagenic call (Test System: AMES SALMONELLA TYPHIMURIUM, Strain/Indicator: TA100, Metabolic Activation: RAT, LIVER, S-9, PHENOBARBITAL, Method: PREINCUBATION) of the same compound?
Answer: inactive; negative

Question: And the mutagenic call (Test System: AMES SALMONELLA TYPHIMURIUM, Strain/Indicator: TA102, Metabolic Activation: NONE, Method: PREINCUBATION)?
Answer: inactive; negative

Question: What about the mutagenic call (Test System: AMES SALMONELLA TYPHIMURIUM, Strain/Indicator: TA102, Metabolic Activation: NONE, Method: STANDARD PLATE) of the same compound?
Answer: inactive; negative

Question: What about the mutagenic call (Test System: AMES SALMONELLA TYPHIMURIUM, Strain/Indicator: TA102, Metabolic Activation: RAT LIVER S-9, Method: PREINCUBATION) of the same compound?
Answer: inactive; negative
